Data: US12084460B2, “Crystalline forms of a TLR7/TLR8 inhibitor” (NOVARTIS AG, priority 2018, dated 2024)
Converted amounts (≈) assume the structure as drawn. Structures can show the parent of a compound that is named as a salt. Blank lines part the entries; values can stand above or below the compound they belong to.

Columns and labels:
Type in all cases: physicochemical
[1] = Hygroscopicity / behaviour under humidity (DVS); details: for behaviour at high humidity: above 70% RH
Source text: Crystalline form A is an anhydrous form of (S)—N-(4-((5-(1,6-dimethyl-1H-pyrazolo[3,4-b]pyridin-4-yl)-3-methyl-4,5,6,7-tetrahydro-1H-pyrazolo[4,3-c]pyridin-1-yl)methyl)bicyclo[2.2.2]octan-1-yl)morpholine-3-carboxamide that is highly crystalline consisting of thin tabular particles.
Crystalline form HA is a hydrated form of (S)—N-(4-((5-(1,6-dimethyl-1H-pyrazolo[3,4-b]pyridin-4-yl)-3-methyl-4,5,6,7-tetrahydro-1H-pyrazolo[4,3-c]pyridin-1-yl)methyl)bicyclo[2.2.2]octan-1-yl)morpholine-3-carboxamide.

[2] = Corrosivity assessment of salt form
Source text: The criteria for selection are toxicological considerations, crystallinity, melting point, hygroscopicity, stability in bulk, compatibility with excipients, pH of aqueous solution, solubility in water and aqueous media, morphology, handling and polymorphic behavior.

[3] = Behavior under compression (physical stability); details: 100 mg compressed 5 minutes at 10 tons
Experimental: Behavior under compression: The physical stability of each crystalline form (Form A or Form HA) was also evaluated.
100 mg of the crystalline form was compressed for 5 minutes at 10 tons with a hydraulic press (diameter of the tablets 8 mm). The sample was then characterized by XRPD to detect any change in the solid state.

[4] = Granulation simulation / dry grinding experiment; details: for form change under dry grinding: XRPD and/or DSC
Experimental: Behavior under granulation simulation experiment: The physical stability of crystalline forms A and HA were also evaluated in granulation simulation experiments. In these experiments granulating solvent was added dropwise to the crystalline form A or HA until the solid is wetted sufficiently. The mixture was then vortexed between each addition at 25° C. Alternatively, dry grinding was carried out. The crystallinity of the material (post-grinding) was re-evaluated by XRPD and/or DSC.

[5] = Solid state stability in bulk and with excipient mixtures; details: bulk: 1 week 80° C., 50° C., 80° C.-75% RH, 50° C.-75% RH; excipient mixtures EM1, EM2, HGC, HMPC: 2 weeks 50° C. with or without 75% RH; HPLC and XRPD
Experimental: A stability and excipient compatibility study was performed on form A and form HA. Both forms were subject to various test conditions as described below: • Test conditions in bulk: 1 week in a tight container at 80° C., 50° C., 80° C.-75% RH or 50° C.-75% RH. • Test condition with excipient mixtures (EM) • a. 1% of form A or form HA in EM1 for 2 weeks at 50° C. • b. 1% of form A or form HA in EM2 for 2 weeks at 50° C. • c. 10% of form A or form HA in crushed hard gelatin capsule (HGC) for 2 weeks at 50° C. • d. 10% of form A or form HA in crushed Hydroxypropyl Methyl Cellulose (HMPC) for 2 weeks at 50° C. • e. 1% of form A or form HA in EM1 for 2 weeks at 50° C. and 75% RH • f. 1% of form A or form HA in EM2 for 2 weeks at 50° C. and 75% RH • g. 10% of form A or form HA in crushed HGC for 2 weeks at 50° C. and 75% RH • h. 10% of form A or form HA in crushed HMPC for 2 weeks at 50° C. and 75% RH • EM1: Excipient mixture 1: Lactose spray dried (53%), Microcrystalline Cellulose (MCC) PH102 (40%), Crospovidone XL (5%), Aerosil (0.5%), Magnesium stearate (1.5%) • EM2: Excipient mixture 2: Mannitol DC (68%), MCC PH102 (26%), Ac-Di-Sol (4%), Aerosil (0.5%), Magnesium stearate (1.5%)
The degradation products were analyzed by HPLC and the sample was analyzed by XPRD to detect any changes to the solid state.

[6] = Solubility
Experimental: Form A is highly soluble at pH values of 4.7 and below (solubility higher than 2 mg/mL), however, at higher pH levels, formation of less soluble form HA leads to lower solubility values.

[7] = Stability under light exposure; details: exposure to 1200 kLux at 25° C.
[8] = Competitive solvent equilibration of form A and form HA; details: 1:1 mixture of form A and form HA suspended in solvents, 25-50° C., seven days, XRPD/DVS
Experimental: Competitive equilibrations were carried out to investigate the relative stability of form A and HA in a competitive solvent equilibration. A 1:1 mixture of form A and form HA was prepared and suspended in various solvents or mixture thereof at temperature between 25° C. and 50° C. for seven days. The resulting suspension was filtered and analyzed by XRPD/DVS.

behaviour at high humidity [1]: deliquescent
SMILES: Cc1cc(N2CCc3c(c(C)nn3CC34CCC(NC(=O)[C@@H]5COCCN5)(CC3)CC4)C2)c2cnn(C)c2n1 [HCl salt, (S)—N-(4-((5-(1,6-dimethyl-1H-pyrazolo[3,4-b]pyridin-4-yl)-3-methyl-4,5,6,7-tetrahydro-1H-pyrazolo[4,3-c]pyridin-1-yl)methyl)bicyclo[2.2.2]octan-1-yl)morpholine-3-carboxamide]
corrosivity [2]: potential corrosivity

hygroscopicity ([1]; up to 70% RH): slightly hygroscopic
moisture uptake ([1]; up to 70% RH): 1.3%
change of crystalline form under compression (XRPD) [3]: No change of crystalline form
form change under dry grinding ([4]; listed as Modification A): stable
form change upon granulation ([4]; granulation with water): partially changed
stability in bulk state and with excipients [5]: good stability
solubility ([6]; pH 4.7, aqueous buffer, pH values of 4.7 and below): > 2000 µg/mL
physical and chemical stability under light exposure [7]: good physical and chemical stability
water activity (aw) at which form A transforms into form HA [8]: ~0.25
SMILES: Cc1cc(N2CCc3c(c(C)nn3CC34CCC(NC(=O)[C@@H]5COCCN5)(CC3)CC4)C2)c2cnn(C)c2n1 [Form A, (S)—N-(4-((5-(1,6-dimethyl-1H-pyrazolo[3,4-b]pyridin-4-yl)-3-methyl-4,5,6,7-tetrahydro-1H-pyrazolo[4,3-c]pyridin-1-yl)methyl)bicyclo[2.2.2]octan-1-yl)morpholine-3-carboxamide]
behaviour at high humidity ([1]; listed as form A): transforms into the hydrate crystalline form HA

hygroscopicity ([1]; humidities above 30% RH): slightly hygroscopic
form change under dry grinding [4]: no form change
form change upon granulation ([4]; ethanol and water as granulation solvent, 25° C., XRPD): no form change
solubility ([6]; aqueous buffers in bio-relevant media, aqueous buffer): ~4 µg/mL (≈ 7.51 µM)
SMILES: Cc1cc(N2CCc3c(c(C)nn3CC34CCC(NC(=O)[C@@H]5COCCN5)(CC3)CC4)C2)c2cnn(C)c2n1 [Form HA, (S)—N-(4-((5-(1,6-dimethyl-1H-pyrazolo[3,4-b]pyridin-4-yl)-3-methyl-4,5,6,7-tetrahydro-1H-pyrazolo[4,3-c]pyridin-1-yl)methyl)bicyclo[2.2.2]octan-1-yl)morpholine-3-carboxamide]
behaviour at low humidity ([1]; below 20% RH, rehydrates to form HA at 30% RH): dehydrates to a non-characterized anhydrate form
